Experimental data: patent US20200361987A1, “DEUTERATED TETRAPEPTIDES THAT TARGET MITOCHONDRIA” (STEALTH BIOTHERAPEUTICS CORP., priority 2017, published 2020)
Several values for one entry are separate records, joined by “and”; a condition that tells them apart may be missing. Identical values can stand only once. Square brackets hold non-standard residues; d marks the D form. Peptide text beside a SMILES is read from it. Dmt = Cc1cc(O)cc(C)c1C[C@H](N)C(=O)O

Tests used:
[1] = Rat PK study, intravenous administration, plasma; assay type: in vivo; details: intravenous 1 mg/kg; for AUC(0-inf): read-out: AUCINF_obs; for clearance: read-out: Cl_obs; for Vd: read-out: Vss_obs
Method: General Methods and Procedures of Rat PK Studies (Aptuit)
All test formulations will be prepared on the day of administration prior to dosing and used as soon as possible. All test formulations will be stored at room temperature, prior to administration.
The dose formulation(s) will be prepared and administered by volume. The target dose levels are detailed below:
Test substances discrete doses will be formulated in saline water at the final concentration of 0.5 mg/mL and intravenously administered at the volume of 2 mL/kg to rats.
Actual body weights of animals will be recorded on the day of dose administration. Doses volumes will be adjusted taking into account the weight of the animal at the time of dose administration. Doses formulations will be administered intravenously via tail vein (2 mL/kg); an aliquot of each dose formulation will be taken before administration. The actual dose received by each animal will be registered and residual volumes discarded.
After administration, serial blood samples will be collected from the lateral tail vein of each rat, then animals will be sacrificed humanely. Approximately 300 μL of Blood will be collected into EDTA tubes. Then exactly 240 μL of blood will be transferred into a micronic tube containing 10 μL of a solution (30 mg/mL NaF and 239 mg/mL Pefabloc) at each of the following time points post-dose (actual times will be recorded): 0.083, 0.25, 0.5, 1, 2, 4 and 8 hours after dosing. All blood samples will be thoroughly but gently mixed following collection and placed on wet ice. Blood will be centrifuged (3000 g for 10 min at approximately 4° C.) as soon as possible and two 50 μL aliquots of plasma will be transferred into micronic tubes. Residual blood will be discarded.
Plasma samples will be frozen at approximately −80° C. as soon as possible after preparation and stored until analysis.
Plasma samples will be assayed using a method based on protein precipitation with methanol followed by HPLC/MS-MS analysis with an optimized analytical method. Calibration standards (CS) and Quality control samples (QC) will be prepared on the day of analysis. Study samples, CS, QC and blanks will be spiked with an internal standard (IS) to improve the precision of the assay. Study samples will be analyzed together with CS, QC and blank samples (including also double blanks). From the calibration curve, the linear range of the analytical method will be determined and lower and upper limits of quantitation specified. Details of the conditions and methods used will be included in the report. All dosing solutions will be checked for accuracy and actual concentration will be reported.
The results for test substances in plasma will be subject to non-compartmental pharmacokinetic analysis using Phoenix WinNonlin 6.3 (see Section 8). The following parameters will be reported:
Calculated concentration of test item in the corresponding formulation (expressed as mg/mL). Dose levels (expressed as mg/kg). Actual collection times (expressed as hh:mm). Plasma concentrations (expressed as ng/mL). Quantitative information about 2 metabolites in Plasma. PK parameters (iv: Cmax, AUClast, AUCinf, CL, Vss, t1/2, if applicable; Abnormal clinical signs and relevant findings, if any.

[2] = test system: CL:DOPC 1:3 liposomes (cardiolipin); test: Isothermal titration calorimetry (ITC) of test compound into CL:DOPC liposomes; assay type: binding; details: 20 mM HEPES pH 7.4
Method: Example 18: Isothermal Titration Calorimetry (ITC) Study
1. Preparation of CL:DOPC 1:3 Liposomes (CL Concentration 0.1 mM)
146 μl of cardiolipin solution (5.1 mg/mL in EtOH, Sigma-Aldrich, C1649-10MG) were mixed with 1.2 mg 0.05 mg (exact weight, see Table 1) of DOPC (Avanti Polar Lipids, 850375P) and 20 mM HEPES buffer pH=7.4. Resulting solution was diluted up to 5 mL with the same buffer, vortexed for 2 min and sonicated in bath sonicator for 30 min at room temperature. Liposomes were produced by manual extrusion (Avestin, The LiposoFast-Stabilizer with a LiposoFast-Basic) through a 100 nm filter (Avestin, PC membranes 0.1 m or Avanti Polar Lipids, PC membranes 0.1 μm, 610005). Extrusion was performed for 21 times. EtOH concentration in sample is 2.9%. Obtained CL:DOPC solutions were tested for homogeneity by DLS (Malvern Instruments Ltd, Zetasizer Nano ZSP, instrument with Malvern Instruments Ltd software 7.11) using the following parameters—medium: water; refractive index: 1.33; viscosity: 0.8872 cP; temperature: 25° C.; nanoparticles: liposomes; refractive index of materials: 1.60; detection angle of 173°, a wavelength of 633 nm. All measurements were performed in triplicate.
2. Preparation of Test Compound Solutions
2 mg or 14 mg (exact weight, see Table 1) of test compound were dissolved in 20 mM HEPES buffer (pH=7.4, contains 2,9% (V/V) of EtOH) to obtain 0.7 mM concentration (for exact volumes see Table 3). Obtained solution was vortexed for 2 min.
3. ITC Titration Experiments
Instrument cell was washed and purged with ≈100 μL of CL:DOPC liposomes solution. After washing cell was filled with CL:DOPC liposomes solution. Injection syringe was loaded with test compound solution. Injection volumes were set to values shown in Table 2 and DP values were set to 2.5 μcal/sec in all experiments. Time between injections—105 seconds. Titration of each compound is performed in triplicate, results are reported as mean value±standard deviation (see Table 4).

N=C(N)NCCC[C@@H](NC(=O)[C@@H](N)Cc1ccccc1)C(=O)N[C@@H](Cc1ccccc1)C(=O)N[C@@H](CCCCN)C(N)=O [Example 1 non-deuterated, Phe-D-Arg-Phe-Lys-NH2, reference compound] (H-F[dR]FK-NH2)
AUC(0-t) [1]: 1950 ng·h/mL | Cmax [1]: 3200 ng/mL | Tmax [1]: 4.98 min | half-life [1]: 30 min | AUC(0-inf) [1]: 1960 ng·h/mL | clearance [1]: 8.55 mL/min/kg | Vd [1]: 0.27 L/kg | Ka ([2]; Average of replicates): 194000 M⁻¹ | Kd ([2]; Average of replicates): 5.39 µM | Ka ([2]; single replicate titration): 230000 M⁻¹ and 141000 M⁻¹ and 211000 M⁻¹ | Kd ([2]; single replicate titration): 4.35 µM and 7.09 µM and 4.74 µM

[2H]C([2H])(N)C([2H])([2H])C([2H])([2H])C([2H])([2H])[C@H](NC(=O)[C@H](Cc1ccccc1)NC(=O)[C@@H](CCCNC(=N)N)NC(=O)[C@@H](N)Cc1ccccc1)C(N)=O [Example 1, Phe-D-Arg-Phe-(3,3,4,4,5,5,6,6-octadeuterium)-Lys-NH2]
AUC(0-t) [1]: 2300 ng·h/mL | Cmax [1]: 4300 ng/mL | Tmax [1]: 4.98 min | half-life [1]: 27 min | AUC(0-inf) [1]: 2310 ng·h/mL | clearance [1]: 7.24 mL/min/kg | Vd [1]: 0.21 L/kg | Ka ([2]; Average of replicates): 389000 M⁻¹ | Kd ([2]; Average of replicates): 2.62 µM | Ka ([2]; single replicate titration): 473000 M⁻¹ and 384000 M⁻¹ and 366000 M⁻¹ and 331000 M⁻¹ | Kd ([2]; single replicate titration): 2.11 µM and 2.6 µM and 2.73 µM and 3.02 µM

Cc1cc(O)cc(C)c1C[C@H](NC(=O)[C@H](N)CCCNC(=N)N)C(=O)N[C@@H](CCCCN)C(=O)N[C@@H](Cc1ccccc1)C(N)=O [Example 11 non-deuterated] (H-[dR][Dmt]KF-NH2)
AUC(0-t) [1]: 2120 ng·h/mL | Cmax [1]: 2930 ng/mL | Tmax [1]: 4.98 min | half-life [1]: 48 min | AUC(0-inf) [1]: 2120 ng·h/mL | clearance [1]: 7.97 mL/min/kg | Vd [1]: 0.29 L/kg

[2H]C([2H])(CN)C([2H])([2H])C[C@H](NC(=O)[C@H](Cc1c(C)cc(O)cc1C)NC(=O)[C@H](N)CCCNC(=N)N)C(=O)N[C@@H](Cc1ccccc1)C(N)=O [Example 11, D-Arg-DMT-(4,4,5,5-d4)-Lys-Phe-NH2]
AUC(0-t) [1]: 2920 ng·h/mL | Cmax [1]: 4680 ng/mL | Tmax [1]: 4.98 min | half-life [1]: 35.3 min | AUC(0-inf) [1]: 2940 ng·h/mL | clearance [1]: 5.7 mL/min/kg | Vd [1]: 0.23 L/kg
